Test results published in article PMC3723878 (PLoS ONE, 2013).
Where a chain is given by its changes, count along the chain named.

What was measured:
α1A-AR = biological target: T1, α1A-AR (Homo sapiens, UniProt P35348); format: binding; set-up: expressed in transfected cells; host or cells: COS-7, transient (calcium phosphate); conditions: ^125I-HEAT 0.4 nM, HEAT 5 µM alone
T1 sequence (P35348 1-466): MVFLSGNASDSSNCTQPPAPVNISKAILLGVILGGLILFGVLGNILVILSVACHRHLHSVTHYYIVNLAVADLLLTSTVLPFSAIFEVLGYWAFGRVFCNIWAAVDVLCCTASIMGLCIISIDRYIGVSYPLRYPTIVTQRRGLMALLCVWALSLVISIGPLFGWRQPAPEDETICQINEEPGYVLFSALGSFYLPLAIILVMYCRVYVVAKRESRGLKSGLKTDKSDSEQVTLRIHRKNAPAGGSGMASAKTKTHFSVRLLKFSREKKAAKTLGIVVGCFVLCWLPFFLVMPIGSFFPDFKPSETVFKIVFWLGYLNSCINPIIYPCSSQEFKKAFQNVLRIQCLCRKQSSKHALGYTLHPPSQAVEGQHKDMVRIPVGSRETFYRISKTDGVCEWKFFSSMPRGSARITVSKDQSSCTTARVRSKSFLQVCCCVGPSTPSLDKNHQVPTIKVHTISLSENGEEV
Protocol: (§1) Binding experiments were performed in a 100 µL reaction mix at room temperature in buffer composed of 50 mM Tris-HCl, pH 7.4, 10 mM MgCl2, 1 g/L BSA. Reactions were stopped by filtration through 96 GF/C filter plates pre-incubated with 0.5% polyethylenimine.
(§2) Binding data were analyzed by nonlinear regression using the KaleidaGraph 4.0 software (Synergy software, Reading, PA). pKD values and Bmax (number of binding sites) were determined by applying a nonlinear regression to data obtained with saturation binding assays. The nonlinear regression used was BS = (Bmax*A)/KD+A, where BS is the specific binding, Bmax the number of binding sites, A the concentration of radioligand, and KD the dissociation constant of the radioligand. Data resulting from competition binding assays were analyzed using the Hill equation for IC50 and curve slope estimations. […] The linear curves were analyzed with IC50 = Ki+(L/KD)*Ki. Dissociation kinetics were analyzed using a simple equation of exponential decay BS * exp (-Koff*t), where BS is the specific binding at time zero and Koff is the dissociation rate constant. Results are expressed as mean ± s.e. mean from n independent experiments. One-way Anova test was used to compare values. A p<0.05 was accepted for statistical significance.

[1] = biological target: T2, human α1A-AR F312A variant (Homo sapiens, UniProt P35348, F312A); test: Saturation binding of ^125I-HEAT
T2 construct: expressed in transfected cells; host or cells: COS-7 (transient, calcium phosphate), membranes
T2 sequence (P35348 1-466 F312A): T1 sequence (P35348 1-466) with F312A
Source text: (§3) α1A-AR cDNA inserted in the prK5 vector was kindly provided by Michael Brownstein (Craig Venter Institute, Rockville, MD). Point mutations were introduced into the α1A-AR gene by sense and antisense primers (Sigma-Aldrich, St Quentin-Fallavier, France) containing the desired changes, using the QuikChange Site-Directed Mutagenesis kit. The incorporation of each mutation was verified by DNA sequencing.
(§4) CHO cells stably expressing α1-ARs were kindly provided by Dr. Hervé Paris (INSERM U858, Toulouse, France) and were grown in a 50∶50 Dulbecco's Modified Eagle's Medium (DMEM)/Ham's F12 medium supplemented with 10% (v/v) foetal bovine serum (FBS), glutamine (2 mM), penicillin (100 units/ml) and streptomycin (100 µg/ml) at 37°C with 5% CO2. COS-7 cells were grown at 37°C under 5% CO2 in Dulbecco's modified Eagle's medium containing 10% fetal calf serum, 1% penicillin and 1% glutamine (Sigma-Aldrich, St Quentin-Fallavier, France). At 80% confluence, the cells were transfected using a calcium phosphate precipitation method for transient expression of the genetic construct. After 48 h incubation at 37°C, cells were harvested and the membranes were prepared as follow. Cells were washed with ice-cold phosphate buffer and centrifuged at 1700 g for 10 min (4°C). The pellet was suspended in ice-cold buffer (1 mM EDTA, 25 mM sodium phosphate, and 5 mM MgCl2, pH 7.4) and homogenized using an Potter-Elvehjem homogenizer (Fisher Scientific Labosi, Elancourt, France). The homogenate was centrifuged at 1700 g for 15 min (4°C). The sediment was resuspended in buffer, homogenized, and centrifuged at 1700 g for 15 min (4°C). The combined supernatants were centrifuged at 35,000 g for 30 min (4°C), and the pellet was suspended in the same buffer (0.1 ml/dish). […] Cells were grown in a 50∶50 Dulbecco's Modified Eagle's Medium (DMEM)/Ham's F12 medium supplemented with 10% (v/v) foetal bovine serum (FBS), glutamine (2 mM), penicillin (100 units/ml) and streptomycin (100 µg/ml) at 37°C with 5% CO2. Media was changed every 2–3 days and cells were passaged when confluent with 0.05% trypsin and 0.02% EDTA.
as §1, §2

[2] = biological target: T3, human α1A-AR F308A variant (Homo sapiens, UniProt P35348, F308A); test: Saturation binding of ^125I-HEAT
T3 construct: expressed in transfected cells; host or cells: COS-7 (transient, calcium phosphate), membranes
T3 sequence (P35348 1-466 F308A): T1 sequence (P35348 1-466) with F308A
Source text: as §3, §4, §1, §2

For `O=C1c2ccccc2CCC1CNCCc1ccc(O)c([125I])c1` (centres unmarked) [125I-HEAT], the “^125I-HEAT dissociation rate (Koff)” value (α1A-AR) was 0.00103 s⁻¹, the “^125I-HEAT Ratio (loss of affinity relative to WT)” value ([1]; F312A) was 0.44 and the “^125I-HEAT pKd” value ([1]; F312A (7.39), saturation binding, n = 3–6) was 10.40±0.10. The “^125I-HEAT Ratio (loss of affinity relative to WT)” value ([2]; F308A) was 2.4 and the “^125I-HEAT pKd” value ([2]; F308A (7.35), saturation binding, n = 3–6) was 9.66±0.11.
